Test results as given in paper PMC5446891, “Inhibition of α-Amylases by Condensed and Hydrolysable Tannins: Focus on Kinetics and Hypoglycemic Actions” (Enzyme Research, 2017).

Tests used:
[1] = target: T1, porcine pancreatic α-amylase (Sus scrofa, UniProt P00690); set-up: method as in doi:10.1016/j.foodres.2013.12.004, PMID 8944767; settings: cited from earlier work
T1 construct: purchased Sigma-Aldrich Co. Type VI-B
T1 sequence (P00690 16-511): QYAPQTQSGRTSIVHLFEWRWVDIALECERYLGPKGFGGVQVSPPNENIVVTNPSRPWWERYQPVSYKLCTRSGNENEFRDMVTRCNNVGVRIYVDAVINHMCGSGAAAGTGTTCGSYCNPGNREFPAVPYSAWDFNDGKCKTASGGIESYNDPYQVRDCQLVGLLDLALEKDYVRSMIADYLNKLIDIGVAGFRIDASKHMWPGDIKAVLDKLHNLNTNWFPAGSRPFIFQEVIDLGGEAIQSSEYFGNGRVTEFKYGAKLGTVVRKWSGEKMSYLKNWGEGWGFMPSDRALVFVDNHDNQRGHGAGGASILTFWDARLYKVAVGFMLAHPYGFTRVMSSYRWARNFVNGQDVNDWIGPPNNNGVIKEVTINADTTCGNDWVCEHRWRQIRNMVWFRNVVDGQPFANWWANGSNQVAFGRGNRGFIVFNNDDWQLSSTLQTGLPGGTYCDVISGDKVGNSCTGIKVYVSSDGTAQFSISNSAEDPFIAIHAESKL

[2] = system: intestinal starch absorption (in vivo α-amylase); assay: glycemic levels of rats after starch administration; set-up: species or system Wistar rats; settings: intragastric with starch 1 g/kg, 60 min; acarbose 50 mg/kg, tannins 100-500 mg/kg
Experimental: Male healthy Wistar rats weighing 200-250 g were used in all experiments. The rats were housed, fed, and treated in accordance with the universally accepted guidelines for animal experimentation. Prior to the investigations, the animals were kept for one week under standard environmental conditions. Throughout the experimentation period, the rats were maintained in single cages and had access to standard pelleted diet and water ad libitum. Food was withdrawn 18 h before the experiments. All experiments involving rats were done in accordance with the worldwide accepted ethical guidelines for animal experimentation and previously approved by the Ethics Committee for Animal Experimentation of the University of […]á (Protocol number 067/2014-CEUA-UEM). Rats were divided into 9 groups (n = 4 rats per group). To group I (positive control) commercial corn starch (1 g per kg body weight) was given intragastrically. Group II (negative control) received only tap water. […] Fasting blood glucose levels were determined before the administration of starch and amylase inhibitors (0 time). […] Blood glucose from cut tail tips was determined using Accu-Chek® Active Glucose Meter. […] The areas were determined with the corresponding data in Figures 6(a) and 6(b) using the numerical integration procedures of the Scientist Software from MicroMath Scientific Software (Salt Lake City, UT). […]

## C[C@H]1O[C@H](O[C@H]2[C@H](O)[C@@H](O)[C@@H](O[C@H]3[C@H](O)[C@@H](O)C(O)O[C@@H]3CO)O[C@@H]2CO)[C@H](O)[C@@H](O)[C@@H]1N[C@H]1C=C(CO)[C@@H](O)[C@H](O)[C@H]1O (some centres unmarked) [acarbose]
[1]
  inhibitory potency compared with the tannins: much better inhibitor of the pancreatic α-amylase than the tannins
[2]
  effect on glycemic levels after starch administration: diminished the increase in blood glucose concentration
